# Where two headings read alike, the source gives them in different places.
# Key:
# [1] = system: P-4E-BP1 (T37/46); experiment: Cell based AlphaLISA assay, inhibition of P-4E-BP1 (T37/46) (mTORC1 substrate phosphorylation) in MDA-MB-468 cells; settings: Homo sapiens, AlphaLISA, two to four hours at 37° C., read-out: pIC50 for Inhibition of mTORC1 and mTORC2 Substrate Phosphorylation, P-4E-BP1-(T37/46) (converted)
# Procedure, shortened: (§1)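 Readout is the Alpha signal for each phosphoprotein, measured in duplicate from cell lysates with a SureFire Ultra homogeneous assay. IC50 values derive from inhibitor concentration-response curves fitted by normalized regression against controls.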
# [2] = system: P-P70S6K (T389); experiment: Cell based AlphaLISA assay, inhibition of P-P70S6K (T389) (mTORC1 substrate phosphorylation) in MDA-MB-468 cells; settings: Homo sapiens, 4 h, AlphaLISA, two to four hours at 37° C., read-out: pIC50 for Inhibition of mTORC1 and mTORC2 Substrate Phosphorylation, P-P70S6K-(T389) (converted)
# Procedure, shortened: as §1
# [3] = system: P-Akt (S473); experiment: Cell based AlphaLISA assay, inhibition of P-Akt (S473) (mTORC2 substrate phosphorylation) in MDA-MB-468 cells; settings: Homo sapiens, AlphaLISA, two to four hours at 37° C., read-out: pIC50 for Inhibition of mTORC1 and mTORC2 Substrate Phosphorylation, p-AKT 1/2/3 -(S473) (converted)
# Procedure, shortened: as §1
Compound,"IC50 ([1]; MDA-MB-468, 4 h) [nM]",IC50 [2] [nM],"IC50 ([3]; MDA-MB-468, 4 h) [nM]",IC50 ([1]; 4 h) [nM],IC50 ([3]; 4 h) [nM]
CO[C@@H]1C[C@H](C[C@@H](C)[C@@H]2CC(=O)[C@H](C)/C=C(\C)[C@@H](O)[C@@H](OC)C(=O)[C@H](C)C[C@H](C)/C=C/C=C/C=C(\C)[C@@H](c3ccco3)C[C@@H]3CC[C@@H](C)[C@@](O)(O3)C(=O)C(=O)N3CCCC[C@H]3C(=O)O2)CC[C@H]1OCCCCc1cn(CCOCCOCCOCCOCCOCCOCCOCCOCCC(=O)NCCCCn2nc(-c3cc4cc(O)ccc4[nH]3)c3c(N)ncnc32)nn1 [Example 76],< 3.16,< 1,3.16 to 31.6,,
CCO[C@@H]1C[C@@H]([C@H](C)C[C@@H]2CC[C@@H](O)[C@H](OC)C2)OC(=O)[C@@H]2CCCCN2C(=O)C(=O)[C@]2(O)O[C@@H](CC[C@H]2C)C[C@H](OC)/C(C)=C/C=C/C=C/[C@@H](C)C[C@@H](C)C(=NOCc2cn(CCOCCOCCOCCOCCOCCOCCC(=O)NCCCCn3nc(-c4ccc5oc(N)nc5c4)c4c(N)ncnc43)nn2)[C@H](OC)[C@H](O)/C(C)=C/[C@H]1C [Example 65],3.16 to 31.6,1 to 10,31.6 to 1000,,
CO[C@H]1C[C@@H]2CC[C@@H](C)[C@@](O)(O2)C(=O)C(=O)N2CCCC[C@H]2C(=O)O[C@H]([C@H](C)C[C@@H]2CC[C@H](n3cc(COC(=O)NCCOCCOCCOCCC(=O)NCCOCCOCCOCCOCCC(=O)NCCCCn4nc(-c5cc6cc(O)ccc6[nH]5)c5c(N)ncnc54)nn3)[C@H](OC)C2)CC(=O)[C@H](C)/C=C(\C)[C@@H](O)[C@@H](OC)C(=O)[C@H](C)C[C@H](C)/C=C/C=C/C=C/1C [Example 126],3.16 to 31.6,1 to 10,31.6 to 1000,,
CO[C@H]1C[C@@H]2CC[C@@H](C)[C@@](O)(O2)C(=O)C(=O)N2CCCC[C@H]2C(=O)O[C@H]([C@H](C)C[C@@H]2CC[C@H](n3cc(-c4cnc(N5CCN(c6ncc(C(=O)NCCOCCC(=O)NCCCCn7nc(-c8ccc9oc(N)nc9c8)c8c(N)ncnc87)cn6)CC5)nc4)nn3)[C@H](OC)C2)CC(=O)[C@H](C)/C=C(\C)[C@@H](O)[C@@H](OC)C(=O)[C@H](C)C[C@H](C)/C=C/C=C/C=C/1C [Example 109],> 1000,< 1,> 1000,,
CO[C@H]1C[C@@H]2CC[C@@H](C)[C@@](O)(O2)C(=O)C(=O)N2CCCC[C@H]2C(=O)O[C@H]([C@H](C)C[C@@H]2CC[C@@H](OCCOCc3cn(CCOCCOCCOCCOCCOCCOCCOCCOCCC(=O)NCCCCn4nc(-c5cc6cc(O)ccc6[nH]5)c5c(N)ncnc54)nn3)[C@H](OC)C2)CC(=O)[C@H](C)/C=C(\C)[C@@H](O)[C@@H](OC)C(=O)[C@H](C)C[C@H](C)/C=C/C=C/C=C/1C [Example 53],,< 1,,< 3.16,3.16 to 31.6
CO[C@H]1C[C@@H]2CC[C@@H](C)[C@@](O)(O2)C(=O)C(=O)N2CCCC[C@H]2C(=O)O[C@H]([C@H](C)C[C@@H]2CC[C@H](n3nncc3-c3cccc(-c4cnc(N5CCN(Cc6cn(CCOCCOCCOCCOCCOCCC(=O)NCCCCn7nc(-c8ccc9oc(N)nc9c8)c8c(N)ncnc87)nn6)CC5)nc4)c3)[C@H](OC)C2)CC(=O)[C@H](C)/C=C(\C)[C@@H](O)[C@@H](OC)C(=O)[C@H](C)C[C@H](C)/C=C/C=C/C=C/1C [Example 29],< 3.16,< 1,3.16 to 31.6,,
CO[C@H]1C[C@@H]2CC[C@@H](C)[C@@](O)(O2)C(=O)C(=O)N2CCCC[C@H]2C(=O)O[C@H]([C@H](C)C[C@@H]2CC[C@@H](O)[C@H](OC)C2)C[C@@H](OC)[C@H](C)/C=C(\C)[C@@H](O)[C@@H](OC)C(=NOCc2cn(CCOCCOCCOCCOCCOCCC(=O)NCCCCn3nc(-c4ccc5oc(N)nc5c4)c4c(N)ncnc43)nn2)[C@H](C)C[C@H](C)/C=C/C=C/C=C/1C [Example 12],> 1000,> 1000,> 1000,,

# Reference: patent US20230093861A1, “RAPAMYCIN ANALOGS AS MTOR INHIBITORS” (Revolution Medicines, Inc., priority 2017, published 2023)
